Experimental data as given in US4948908A, “Organo phosphorus compounds and pesticidal compositions” (priority 1986, dated 1990).

Test: solubility of the quarternary ammonium salt in solvents
Format: physicochemical
Protocol: Preparation of Phenyl bis[4-NNN-trimethyl-ammonium-iodide-phenylamido]Phosphate, also designated phosphoric-acid-phenyl-ester-bis[4-NNN-trimethyl-ammonium-iodide-phenyl-amide] [drawing 25] The diamine V (Example 1) is dissolved in a mixture of 4:1 acetone:0.5MNaHCO3, and reacted overnight with excess Mel, methyliodide, at room temperature. The reaction mixture is then evaporated, dissolved in water and washed with ethyl acetate to remove impurities. The aqueous phase is then evaporated to dryness and the residue is washed several times with acetone to remove Sodiumiodide obtained as a by-product. The compound obtained is highly hygroscopic. The quarternary ammonium salt is very soluble in water but not in ethanol or acetone. It gives a negative reaction with TNBS.

Question: What does the source list for `C[N+](C)(C)c1ccc(NP(=O)(Nc2ccc([N+](C)(C)C)cc2)Oc2ccccc2)cc1` [Example 3, Phenyl bis[4-NNN-trimethyl-ammonium-iodide-phenylamido]Phosphate]?
Answer: solubility in ethanol or acetone (ethanol or acetone): not; solubility in water (water): very soluble
